Experimental data reported in ChEMBL document CHEMBL3425471, “Design, synthesis and biological evaluation of novel pyrazoline-containing derivatives as potential tubulin assembling inhibitors” (Eur J Med Chem, 2015).

How the values were obtained:
[1] = biological target: Tubulin (Bos taurus, UniProt Q6B856+Q862L2+Q862F3); assay: Inhibition of bovine brain tubulin polymerization after 20 mins by turbidimetric analysis
[2] = system: A549; assay: cells; conditions: Homo sapiens, A549, 24 h
Description: Antiproliferative activity against human A549 cells assessed as reduction in cell viability after 24 hrs by MTT assay

[3] = system: MCF7; assay: cells; conditions: Homo sapiens, MCF7, 24 h
Description: Antiproliferative activity against human MCF7 cells assessed as reduction in cell viability after 24 hrs by MTT assay

[4] = system: HepG2; assay: cells; conditions: Homo sapiens, HepG2, 24 h
Description: Antiproliferative activity against human HepG2 cells assessed as reduction in cell viability after 24 hrs by MTT assay

Row | SMILES | IC50 [1] | IC50 [2] | IC50 [3] | IC50 [4]
1 | COc1ccc(C2=NN(C(=O)c3ccc(Br)cc3)C(c3ccc4c(c3)OCO4)C2)cc1 (stereo unspecified) | > 40 µM | > 10 µM | > 10 µM | > 10 µM
2 | COc1cc(C2=NN(C(=O)c3ccc(Br)cc3)C(c3ccc4c(c3)OCO4)C2)cc(OC)c1OC (stereo unspecified) | 25.06 µM | 4.16 µM | 5.26 µM | 6.22 µM
3 | O=C(c1ccc(Br)cc1)N1N=C(c2ccc(Br)cc2)CC1c1ccc2c(c1)OCO2 (stereo unspecified) | > 40 µM | > 10 µM | > 10 µM | > 10 µM
4 | O=C(c1ccc(Br)cc1)N1N=C(c2ccc(Cl)cc2)CC1c1ccc2c(c1)OCO2 (stereo unspecified) | > 40 µM | > 10 µM | > 10 µM | > 10 µM
5 | Cc1ccc(C2=NN(C(=O)c3ccc(Br)cc3)C(c3ccc4c(c3)OCO4)C2)cc1 (stereo unspecified) | > 40 µM | > 10 µM | > 10 µM | > 10 µM
6 | Cc1cccc(C2=NN(C(=O)c3ccc(Br)cc3)C(c3ccc4c(c3)OCO4)C2)c1 (stereo unspecified) | > 40 µM | > 10 µM | > 10 µM | > 10 µM
7 | O=C(c1ccc(Br)cc1)N1N=C(c2ccccc2)CC1c1ccc2c(c1)OCO2 (stereo unspecified) | > 40 µM | > 10 µM | > 10 µM | > 10 µM
8 | COc1ccc(C2=NN(C(=O)c3ccc(Cl)cc3)C(c3ccc4c(c3)OCO4)C2)cc1 (stereo unspecified) | > 40 µM | 7.14 µM | 8.66 µM | 8.38 µM
9 | COc1ccc(C2=NN(C(=O)c3ccccc3)C(c3ccc4c(c3)OCO4)C2)cc1 (stereo unspecified) | 35.45 µM | 5.21 µM | 5.37 µM | 6.25 µM
10 | COc1cc(C2=NN(C(=O)c3ccc(Cl)cc3)C(c3ccc4c(c3)OCO4)C2)cc(OC)c1OC (stereo unspecified) | 21.73 µM | 4.26 µM | 4.77 µM | 2.14 µM
11 | COc1ccc(/C=C\c2cc(OC)c(OC)c(OC)c2)cc1O [COMBRETASTATIN A4] | – | 0.14 µM | – | 0.17 µM

The remaining molecules from weak to strong by IC50 [2], led by results:

Row | IC50 [1] | IC50 [2] | IC50 [3] | IC50 [4] | SMILES
12 | 25.79 µM | 4.08 µM | 6.41 µM | 5.05 µM | COc1ccc(C(=O)N2N=C(c3ccc(OC)cc3)CC2c2ccc3c(c2)OCO3)cc1 (stereo unspecified)
13 | 22.06 µM | 3.19 µM | 4.46 µM | 6.26 µM | COc1ccc(C2=NN(C(=O)c3ccc(Br)cc3)C(c3ccc4c(c3)OCO4)C2)cc1OC (stereo unspecified)
14 | 15.73 µM | 2.73 µM | 3.56 µM | 3.77 µM | COc1ccc(C2=NN(C(=O)c3ccc(OC)c(OC)c3)C(c3ccc4c(c3)OCO4)C2)cc1 (stereo unspecified)
15 | > 40 µM | 2.45 µM | 5.11 µM | > 10 µM | O=C(c1ccc(Br)cc1)N1N=C(c2ccc(F)cc2)CC1c1ccc2c(c1)OCO2 (stereo unspecified)
16 | 7.69 µM | 1.08 µM | 1.77 µM | 1.86 µM | COc1ccc(C2=NN(C(=O)c3ccc(F)cc3)C(c3ccc4c(c3)OCO4)C2)cc1 (stereo unspecified)
17 | 2.09 µM | 0.78 µM | 0.22 µM | 1.06 µM | COc1cc(C2=NN(C(=O)c3ccc(F)cc3)C(c3ccc4c(c3)OCO4)C2)cc(OC)c1OC (stereo unspecified)
